According to patent US20040198770A1, “Uses for l-tetrahydropalmatine” (PharmacoGenetics Limited, priority 2003, published 2004):

Columns and labels:
Type in all cases: in vivo
ICR mice [1] = assay: Hole-board test; conditions: 300 s
Protocol: (§1) ICR mice of male sex, weighing 15.6-17.8 g were used, provided by Experimental Animal Centre of HKUST, housed in groups, given food and water ad libitum and maintained on a 12 hour light: 12 hour dark cycle. All of the experimental groups had 12 animals per group.
(§2) For each experimental animal, administered orally 0.2 ml (pH 7.2) of respective solvent at concentrations as stated above for each group (or double-distilled water for normal control group) one hour before testing.
The hole-board apparatus is a 0.5 cm thick walled wood arena of 60×60×30 cm, with four 5 cm equidistant 4 cm diameter holes spaced on the floor. The mice are placed on the centre of the arena and the number of head-dip on the hole and the number of rearing are counted during a 300 second test period (File S. E. et al., “The effects of triazolobenzo-diazepines in two animal tests of anxiety and in the holeboard.”, Br J Pharmacol. 1985 November; 86(3): 729-35; PMID: 2866006). After each trial, the floor of the apparatus was wiped and dried thoroughly with tissue to remove traces of the previous path.

ICR mice [2] = assay: Elevated plus-maze test; conditions: for most medicinal dosage (time spent and percentage of open arm entry): oral; for Open arm entry % / Open arm entry No. / Total no. of arm entries / Closed arm entry % / Closed arm entry No.: 300 s; for Open arm Time spent / Open arm time spent % / Closed arm Time spent / Closed arm time spent %: 300 s test
Protocol: as §1, §2
The elevated plus-maze is made of 0.5 cm thick wood as a horizontal cross consisting of two open arms (25×5 cm) and two opposite arms (25×5 cm) enclosed by 10 cm high walls. The arms extend from a central platform having dimensions of 5×5 cm. The plus-maze is elevated to a height of 40 cm from the floor. The maze is put inside a box with dimensions of 30×30×50 cm. The mice are placed on the central platform of the maze facing a closed arm. The number of arm entries and the time spent in the open and closed arm are counted for 300 seconds (Pellow S. et al., “Anxiolytic and anxiogenic drug effects on exploratory activity in an elevated plus-maze: a novel test of anxiety in the rat”, Pharmacol Biochem Behav. 1986 March; 24(3): 525-9; PMID: 2871560). Arm entry was defined as one half body entered into the arm.

ICR mice [3] = assay: Horizontal-wire test; conditions: for Number of falling: Table 2, mice; for Number of falling / No. of falling: 60 s; for No. of falling: Table 1, mice
Protocol: as §1, §2
Mice are lifted by the tail and allowed to grasp a horizontally strung wire (1 mm diameter, 20 cm long and placed 20 cm above the table) with their forepaws and released (Bonetti E. P. et al., Psychopharmacology (Berl). 1982; 78(1): 8-18; PMID: 6292984). For each experimental animal, the number of falling onto the table in 60 seconds was determined.
There is no significant difference between same dosage l-THP and dl-THP groups.

ICR mice [4] = assay: Locomotor activity test; conditions: for No. of Transitions: mice, 1 h before test, 300 s
Protocol: as §1, §2
An apparatus with a brown light-resistant box having dimensions of 60×60×30 cm was used to perform the test. It consists of four cylindrical plastic boxes of 20 cm diameter, each having 6 equally distributed infrared photocells. The locomotor activity was counted automatically during a 300 second test period. A decrease in the number of transitions reflects a decrease in locomotor activity.
Physical reflections existed for this group and there was no abnormal phenomenon in respiratory circulation.

[5] = mice, oral 0.5 mg/kg, 0.5 mg/kg

## COc1cc2c(cc1OC)C1Cc3ccc(OC)c(OC)c3CN1CC2 (racemic) [dl-THP, 5,8,18,13a-tetrahydro-2,3,9,10-tetramethoxy-6H-dibenzo [a,q] quinolizine, reference compound]
ICR mice [1]; oral 0.1 mg/kg
  Head-dip No.: 13.42 ± 12.06
  Rearing No.: 22.17 ± 12.76
  Total No. (head-dip and rearing): 35.58 ± 16.47
ICR mice [1]; oral 0.5 mg/kg
  Head-dip No.: 17.67 ± 11.14
  Rearing No.: 26.50 ± 10.06
  Total No. (head-dip and rearing): 44.17 ± 13.53
ICR mice [1]; oral 1.0 mg/kg
  Head-dip No.: 13.20 ± 10.64
  Rearing No.: 20.40 ± 15.74
  Total No. (head-dip and rearing): 33.60 ± 20.37
ICR mice [1]; oral 5.0 mg/kg
  Head-dip No.: 11.08 ± 6.34
  Rearing No.: 26.39 ± 12.28
  Total No. (head-dip and rearing): 37.46 ± 15.95
ICR mice [2]; mice
  most medicinal dosage (time spent and percentage of open arm entry): 5 mg/kg
ICR mice [2]; mice, oral 0.1 mg/kg
  Open arm entry %: 30.58 ± 5.83 %
  Open arm entry No.: 8.77 ± 1.88
  Total no. of arm entries: 28.92 ± 4.73
ICR mice [2]; mice, oral 0.5 mg/kg
  Open arm entry %: 43.13 ± 4.17%
  Open arm entry No.: 13.15 ± 3.33
  Total no. of arm entries: 30.25 ± 5.55
  Open arm Time spent: 80.42 ± 15.23
  Open arm time spent %: 29.25 ± 5.10%
ICR mice [2]; mice, oral 1.0 mg/kg
  Open arm entry %: 51.17 ± 5.48 %
  Open arm entry No.: 16.00 ± 3.13
  Total no. of arm entries: 31.20 ± 4.16
  Open arm Time spent: 88.40 ± 17.37
  Open arm time spent %: 29.95 ± 5.31%
ICR mice [2]; mice, oral 5 mg/kg
  hypnotic effect / inhibition of the nervous system: does not induce a hypnotic effect or inhibit the nervous system
ICR mice [2]; mice, oral 5.0 mg/kg
  Open arm entry %: 50.21 ± 4.04 %
  Open arm entry No.: 15.23 ± 3.19
  Total no. of arm entries: 30.15 ± 4.83
  Open arm Time spent: 95.00 ± 23.56
  Open arm time spent %: 32.79 ± 8.60 %
ICR mice [3]; oral 0.5 mg/kg
  Number of falling: 0.30 ± 0.48
ICR mice [3]; oral 1.0 mg/kg
  Number of falling: 0.50 ± 0.67
ICR mice [3]; oral 5.0 mg/kg
  Number of falling: 0.40 ± 0.49
ICR mice [3]; oral 10 mg/kg
  Number of falling: 0.80 ± 0.64
ICR mice [3]; oral 30 mg/kg
  Number of falling: 21.60 ± 8.72

## CN1C(=O)CN=C(c2ccccc2)c2cc(Cl)ccc21 [DZ, Diazepam, reference compound]
ICR mice [1]; oral 1.0 mg/kg
  Rearing No.: 26.38 ± 8.51
  Total No. (head-dip and rearing): 42.00 ± 7.11
ICR mice [2]; mice, oral 1.0 mg/kg
  Closed arm entry %: 44.58 ± 4.10%
  Closed arm entry No.: 16.75 ± 3.26
  Total no. of arm entries: 38.25 ± 7.06
  Closed arm Time spent: 159.29 ± 14.18
  Closed arm time spent %: 54.81 ± 4.53 %
ICR mice [2]; mice, oral 1.0 mg/kg, 1 mg/kg
  Open arm time spent %: 45.19 ± 4.53 %
  Open arm entry %: 55.42 ± 4.10 %

## COc1cc2c(cc1OC)[C@@H]1Cc3ccc(OC)c(OC)c3CN1CC2 [l-THP, l-tetrahydropalmatine]
ICR mice [1]; oral 0.05 mg/kg
  Head-dip No.: 15.83 ± 3.01
  Rearing No.: 26.83 ± 5.51
  Total No. (head-dip and rearing): 42.67 ± 6.64
ICR mice [1]; oral 0.1 mg/kg
  Head-dip No.: 18.73 ± 6.56
  Rearing No.: 20.36 ± 9.54
ICR mice [1]; oral 0.5 mg/kg
  Rearing No.: 27.08 ± 13.64
  Total No. (head-dip and rearing): 41.00 ± 10.20
ICR mice [1]; oral 1.0 mg/kg
  Rearing No.: 23.50 ± 9.27
ICR mice [1]; oral 2.5 mg/kg
  Head-dip No.: 15.67 ± 4.00
  Rearing No.: 22.42 ± 4.06
  Total No. (head-dip and rearing): 38.08 ± 6.43
ICR mice [1]; oral 5.0 mg/kg
  Head-dip No.: 8.75 ± 5.56
ICR mice [2]; experimental mice
  Optimal dosage for anxiolytic effect: 1 mg/kg
ICR mice [2]; experimental mice, 5 mg/kg
  medicinal effect under medium dosage: sedative and hypnotic effect
ICR mice [2]; experimental mice, 0.1-2.5 mg/kg
  medicinal effect under low dosage: anxiolytic effect
ICR mice [2]; mice
  most medicinal dosage (time spent and percentage of open arm entry): 1 mg/kg
ICR mice [2]; mice, oral 0.05 mg/kg
  Closed arm entry %: 67.89 ± 6.77%
  Closed arm entry No.: 19.33 ± 5.55
  Open arm entry %: 32.11 ± 6.77%
  Open arm entry No.: 8.75 ± 1.36
  Total no. of arm entries: 28.08 ± 5.62
  Closed arm Time spent: 225.42 ± 12.13
  Closed arm time spent %: 80.96 ± 3.55%
  Open arm Time spent: 53.08 ± 10.40
  Open arm time spent %: 19.04 ± 3.55%
ICR mice [2]; mice, oral 0.1 mg/kg
  number of open arm entry of l-THP greater than dl-THP by: 31.7%
  percentage of open arm entry of l-THP greater than dl-THP by: 40.4%
  Closed arm entry %: 57.17 ± 4.26%
  Closed arm entry No.: 15.27 ± 2.41
  Open arm entry %: 42.83 ± 4.26 %
  Total no. of arm entries: 26.82 ± 4.38
  Closed arm Time spent: 217.27 ± 15.11
  Closed arm time spent %: 76.33 ± 5.61%
  Open arm Time spent: 68.18 ± 20.68
  Open arm time spent %: 23.67 ± 5.61%
ICR mice [2]; mice, oral 0.5 mg/kg
  Closed arm entry %: 58.18 ± 6.37%
  Closed arm entry No.: 16.17 ± 1.95
  Total no. of arm entries: 27.92 ± 4.08
  Closed arm Time spent: 205.33 ± 20.02
  Closed arm time spent %: 74.19 ± 7.09%
  Open arm Time spent: 71.75 ± 21.08
ICR mice [2]; [5]
  Open arm time spent %: 25.81 ± 7.09 %
  Open arm entry %: 41.82 ± 6.37 %
ICR mice [2]; mice, oral 1.0 mg/kg
  Closed arm entry %: 55.53 ± 3.10%
  Closed arm entry No.: 14.92 ± 1.93
  Open arm entry %: 44.47 ± 3.10 %
  Total no. of arm entries: 26.92 ± 3.61
  Closed arm Time spent: 204.00 ± 16.42
  Closed arm time spent %: 71.94 ± 6.70%
ICR mice [2]; mice, oral 1.0 mg/kg, 1 mg/kg
  Open arm time spent %: 28.06 ± 6.70 %
ICR mice [2]; mice, oral 2.5 mg/kg
  Closed arm entry %: 59.61 ± 4.06%
  Closed arm entry No.: 15.92 ± 2.15
  Open arm entry %: 40.39 ± 4.09 %
  Open arm entry No.: 10.92 ± 2.50
  Total no. of arm entries: 26.83 ± 4.20
  Closed arm Time spent: 227.83 ± 12.15
  Closed arm time spent %: 78.04 ± 4.70%
  Open arm Time spent: 64.75 ± 16.70
  Open arm time spent %: 21.96 ± 4.70%
ICR mice [2]; mice, oral 5 mg/kg
  number of open arm entry of l-THP less than dl-THP by: 357.4%
  percentage of open arm entry of l-THP less than dl-THP by: 69.5%
ICR mice [2]; mice, oral 5.0 mg/kg
  Closed arm entry %: 70.37 ± 5.03%
  Closed arm entry No.: 7.83 ± 3.43
  Closed arm Time spent: 253.25 ± 24.32
  Closed arm time spent %: 88.54 ± 5.48%
ICR mice [2]; mice, oral 5.0 mg/kg, 5 mg/kg
  Open arm time spent %: 11.46 ± 5.48 %
  Open arm entry %: 29.63 ± 5.03%
ICR mice [2]; mice, oral 0.1-2.5 mg/kg
  increase of percentage of open arm entry compared to the normal control group: 39.31-48.14%
  increase of percentage of time spent in open arm compared to the normal control group: 27.19-50.78%
ICR mice [3]; oral 0.5 mg/kg
  No. of falling: 0.4 ± 0.49
  Number of falling: 0.40 ± 0.48
ICR mice [3]; oral 1.0 mg/kg
  No. of falling: 0.4 ± 0.48
  Number of falling: 0.40 ± 0.48
ICR mice [3]; oral 5.0 mg/kg
  No. of falling: 0.5 ± 0.67
  Number of falling: 0.50 ± 0.67
ICR mice [3]; oral 10 mg/kg
  No. of falling: 1.0 ± 0.77
  Number of falling: 1.00 ± 0.77
ICR mice [3]; oral 20 mg/kg
  No. of falling: 4.5 ± 1.50
ICR mice [3]; oral 40 mg/kg
  No. of falling: 8.5 ± 3.55
ICR mice [3]; oral 30 mg/kg
  Number of falling: 18.50 ± 3.54
ICR mice [3]; mice, oral
  oral dosage at which there is no myorelaxation effect: less than 20 mg/kg
ICR mice [4]; 20 mg/kg
  medicinal effect under high dosage: inhibitive effect on CNS and myorelaxation
ICR mice [4]; oral 0.5 mg/kg
  No. of Transitions: 121.1 ± 9.53
ICR mice [4]; oral 1.0 mg/kg
  No. of Transitions: 111.3 ± 11.91
ICR mice [4]; oral 5.0 mg/kg
  No. of Transitions: 104.5 ± 10.73
ICR mice [4]; oral 10 mg/kg
  No. of Transitions: 101.4 ± 15.41
ICR mice [4]; oral 20 mg/kg
  No. of Transitions: 53.0 ± 12.72
ICR mice [4]; oral 40 mg/kg
  No. of Transitions: 13.6 ± 5.27
